{"source": "paper PMC6694100", "about": "“The complex of ferric-enterobactin with its transporter from Pseudomonas aeruginosa suggests a two-site model” (Nature Communications, 2019)", "key": {"[1]": {"target": "T1, PfeA R480A-Q482A double mutant (Pseudomonas aeruginosa, UniProt Q05098, Q507A/R505A)", "T1 construct": "His7 tag with TEV protease site (N, cleaved yes); made in house; host or cells: E. coli C43 (DE3)", "T1 sequence (Q05098 26-746 R505A/Q507A)": "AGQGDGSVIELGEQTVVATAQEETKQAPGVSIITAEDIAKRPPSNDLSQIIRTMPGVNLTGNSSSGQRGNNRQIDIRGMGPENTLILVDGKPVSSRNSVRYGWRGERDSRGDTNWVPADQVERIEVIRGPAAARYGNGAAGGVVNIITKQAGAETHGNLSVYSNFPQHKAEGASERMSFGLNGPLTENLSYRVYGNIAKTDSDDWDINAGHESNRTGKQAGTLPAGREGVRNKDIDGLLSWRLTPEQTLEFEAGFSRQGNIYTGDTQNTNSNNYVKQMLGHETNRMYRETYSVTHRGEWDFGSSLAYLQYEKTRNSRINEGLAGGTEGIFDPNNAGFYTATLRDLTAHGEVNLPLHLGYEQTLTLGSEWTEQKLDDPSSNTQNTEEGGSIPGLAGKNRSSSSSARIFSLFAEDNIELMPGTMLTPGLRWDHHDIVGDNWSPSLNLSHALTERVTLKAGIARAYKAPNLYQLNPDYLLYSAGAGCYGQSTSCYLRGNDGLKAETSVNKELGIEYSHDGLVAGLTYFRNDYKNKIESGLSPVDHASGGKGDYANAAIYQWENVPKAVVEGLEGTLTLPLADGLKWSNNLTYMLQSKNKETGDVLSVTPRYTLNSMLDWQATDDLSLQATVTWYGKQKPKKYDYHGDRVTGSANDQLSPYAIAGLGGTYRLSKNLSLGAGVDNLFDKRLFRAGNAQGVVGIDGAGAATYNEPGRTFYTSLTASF", "assay": "coelution on S200 size-exclusion column, PfeA R480A-Q482A", "type": "binding", "protocol": "Proteins were incubated with the Fe^3+-siderophore before being loaded on a S200 size-exclusion column."}, "[2]": {"tested_on": "∆pfeA(pMMBpfeAR480AQ482A) cells (double-mutant PfeA)", "assay": "55Fe-enterobactin binding and uptake assay, ∆pfeA(pMMBpfeAR480AQ482A)", "type": "cell-based, Pseudomonas aeruginosa", "conditions": "for 55Fe count, Comptage / 55Fe-enterobactin bound/taken up: replicates, Figure 6b-c, listed as 55Fe-enterobactin", "protocol": "(§1) Fig. 6 Effects of PfeA mutation in vivo. a Analysis of changes in the transcription of pfeA gene. PAO1 strain, its corresponding deletion mutant ∆pfeA and deletion mutants carrying the expression plasmid of PfeA wild-type (∆pfeA(pMMBpfeA) or the R480A-Q482A mutant (∆pfeA(pMMBpfeAR480AQ482A)) were grown in CAA medium supplemented with 10 µM enterobactin. The data were normalised relative to the reference gene uvrD, and are representative of three independent experiments performed in triplicate (n = 3). The results are given as a ratio between the values obtained for ∆pfeA, ∆pfeA(pMMBpfeA) and ∆pfeA(pMMBpfeAR480AQ482A) over those obtained for the PAO1 strain. b ^55Fe-enterobactin binding at the bacterial surface. Cells were grown as in panel a, and were incubated for 15 min with 200 µM CCCP before initiation of transport assays by the addition of 500 nM ^55Fe-enterobactin. After 30 min incubation, the radioactivity accumulated in the bacteria was counted. The results are expressed as pmol of ^55Fe-enterobactin bound per ml of cells at an OD600 of 1. The experiments have been repeated three times. c ^55Fe-enterobactin binding and uptake. Cells were grown as in panel a, and were incubated with or without 200 µM CCCP before initiation of transport assays by the addition of 500 nM ^55Fe-enterobactin. After 30 min incubations, the radioactivity accumulated in the bacteria was counted. The results are expressed as pmol of ^55Fe-enterobactin bound and transported per ml of cells at an OD600 of 1. The experiments have been repeated three times\n(§2) The complex was prepared at ^55Fe concentrations of 50 μM, with a siderophore:iron (mol:mol) ratio of 20:1. P. aeruginosa strains were first grown overnight at 30 °C in LB broth, and were then washed, resuspended and cultured overnight at 30 °C in iron-deficient CAA medium (casamino acid medium, composition: 5 g.l^−1 low-iron CAA (Difco), 1.46 g.l^−1 K2HPO4 3H2O, 0.25 g.l^−1 MgSO4 7H2O) and in the presence of 10 µM enterobactin to induce the expression of PfeA. CAA is a highly iron-restricted medium with iron concentrations of 20 nM[59]. Afterwards bacteria were washed with 50 mM Tris-HCl pH 8.0, and diluted to an OD600 of 1. Cells solutions were divided in two, one batch being treated with 200 μM CCCP. This compound collapses the proton-motive force across the bacterial cell membranes, inhibiting TonB-dependent iron uptake. Binding and transport assays were initiated by adding 500 nM ^55Fe-enterobactin to the bacterial solutions treated or not with CCCP. After 30 min of incubations, cells were centrifuged, and the radioactivity associated to the bacteria was monitored in the cell pellets. For the cells treated with CCCP, the radioactivity in the cell pellets corresponds to the binding of ^55Fe-enterobactin to P. aeruginosa cell surface, since no uptake occurs. In the absence of CCCP, the radioactivity associated to the cells corresponds to ^55Fe-enterobactin binding to the cell surface and the uptake into the bacteria."}, "[3]": {"target": "T1, PfeA R480A-Q482A double mutant", "assay": "isothermal titration calorimetry, PfeA R480A-Q482A", "type": "binding", "protocol": "The sites have different affinities for the ligand, one with high affinity and highly favourable enthalpy and the second with lower affinity and unfavourable enthalpy. Although the biphasic nature of the isotherm was reproducible, the numerical values varied. For K1, the binding constant was 20 to 100 nM; for K2 […]. […] The weaker binding at the […] site is consistent with the higher B-factor of the Fe^3+-enterobactin molecule observed in the complex crystal structures.\nAffinities of PfeA wild-type and mutants for Fe^3+-enterobactin were measured by isothermal titration calorimetry using a VP-ITC instrument (GE Healthcare) at 25 °C. Titrations were performed using 57 × 5 μl injections of Fe^3+-enterobactin (70–55 μM) into 10 μM protein. The heats of dilution measured from injection of the ligands into the buffer were subtracted, and titration curves were fitted using AFFINImeter software with a two-site binding model. Concentrations of Fe^3+-enterobactin solutions were verified with UV/vis spectrophotometry using a published molar extinction coefficient of ε495 = 5600 M^−1 cm^−1. […] Reverse titration has been also performed (PfeA into Fe^3+-enterobactin), but data suffer from high heats of dilution in the beginning of the blank titration of PfeA into the buffer giving estimates of K1 = 95 nM and K2 = 4.5 μM for the wild-type."}, "wild-type PAO1 strain": {"tested_on": "wild-type PAO1 strain", "assay": "55Fe-enterobactin binding and uptake assay, PAO1", "type": "cell-based, Pseudomonas aeruginosa", "conditions": "replicates, Figure 6b-c, listed as 55Fe-enterobactin", "protocol": "as §1\nas §2, with “This compound collapses the proton-motive force across the bacterial cell membranes, inhibiting TonB-dependent iron uptake. Binding and transport assays were initiated by adding 500 nM ^55Fe-enterobactin to the bacterial solutions treated or not with CCCP.” left out"}, "[4]": {"conditions": "∆pfeA (pMMBpfeAR480AQ482A) + CCCP"}, "[5]": {"conditions": "∆pfeA (pMMBpfeAR480AQ482A), no CCCP"}}, "note": "Several values for one entry are separate records, joined by “and”; a condition that tells them apart may be missing. Equal entries are not always repeated. Entries after “also recorded” stand apart in the source; their conditions may differ."}
{"smiles": "O=C(N[C@H]1COC(=O)[C@@H](NC(=O)c2cccc([O-])c2[O-])COC(=O)[C@@H](NC(=O)c2cccc([O-])c2[O-])COC1=O)c1cccc([O-])c1[O-].[Fe+3]", "note": "[Fe^3+-enterobactin]", "values": [{"measurement": "coelution with protein on size-exclusion column", "setting": "[1]", "result": "does not coelute"}, {"measurement": "^55Fe-enterobactin binding and uptake", "setting": "[2]; cells not treated with CCCP, 500 nM ^55Fe-enterobactin, 30 min", "result": "inactive"}, {"measurement": "55Fe count, Comptage", "setting": "[2]; [4]", "result": "1611 dpm and 1344 dpm and 1594 dpm"}, {"measurement": "55Fe-enterobactin bound/taken up", "setting": "[2]; [4]", "result": "20.669 pmol/ml/DO600 and 17.2434 pmol/ml/DO600 and 20.4509 pmol/ml/DO600"}, {"measurement": "55Fe count, Comptage", "setting": "[2]; [5]", "result": "2941 dpm and 2752 dpm and 2956 dpm"}, {"measurement": "55Fe-enterobactin bound/taken up", "setting": "[2]; [5]", "result": "37.7328 pmol/ml/DO600 and 35.3079 pmol/ml/DO600 and 37.9252 pmol/ml/DO600"}, {"measurement": "binding by ITC", "setting": "[3]", "result": "no binding was detected; also recorded: did not show any detectable binding"}, {"measurement": "55Fe count, Comptage", "setting": "wild-type PAO1 strain; PAO1 + CCCP", "result": "1670 dpm and 1638 dpm and 1498 dpm"}, {"measurement": "55Fe-enterobactin bound/taken up", "setting": "wild-type PAO1 strain; PAO1 + CCCP", "result": "21.426 pmol/ml/DO600 and 21.0154 pmol/ml/DO600 and 19.2192 pmol/ml/DO600"}, {"measurement": "55Fe count, Comptage", "setting": "wild-type PAO1 strain; PAO1, no CCCP", "result": "14331 dpm and 14149 dpm and 16177 dpm"}, {"measurement": "55Fe-enterobactin bound/taken up", "setting": "wild-type PAO1 strain; PAO1, no CCCP", "result": "183.866 pmol/ml/DO600 and 181.531 pmol/ml/DO600 and 207.55 pmol/ml/DO600"}]}
